Assay results published in US10208033B2, “β-carboline, dihydro-β-carboline and tetrahydro-β-carboline alkaloid derivatives and preparation methods same and use in aspects of preventing and treating plant viruses, fungicides and insecticides” (NANKAI UNIVERSITY, priority 2013, dated 2019).

Assays:
[1] = tested on: Colletotrichum orbiculare; test: Fungicidal (bactericidal) activity in vitro, PDA colony diameter; assay type: cell-based; details: Colletotrichum orbiculare, 96 h; 50 mg/kg
Phytophthora capsici = test: as above; assay type: cell-based; details: Phytophthora capsici, 96 h; 50 mg/kg
[2] = tested on: tobacco mosaic virus (TMV); test: Anti-TMV in vitro effect (half-leaf soaking); assay type: cell-based, tobacco mosaic virus (host Nicotiana tabacum L.cv.Xanthi NN); details: Tobacco mosaic virus, read-out: Relative inhibition rate (%) In vitro activity; for inhibition at 100 µg/mL: treatment dose 100 μg/mL; for inhibition at 500 µg/mL: treatment dose 500 μg/mL
cotton bollworms = test: whole plant or invertebrate; details: Helicoverpa armigera, in Gossypium hirsutum, read-out: Cotton bollworm Mortality (%)
Experimental: Experimental method of cotton bollworms: feed and drug mixing method: measure 3 mL of prepared solution and add it to about 27 g of newly prepared feed, thereby obtaining needed concentration through dilution by 10 times.

Rhizoctonia solani = test: Fungicidal (bactericidal) activity in vitro, PDA colony diameter; assay type: cell-based; details: Rhizoctonia solani, 96 h; 50 mg/kg
Bipolaria maydis = test: organism not typed; assay type: cell-based; details: read-out: Bactericidal activity (%) Bipolaria maydis
[3] = tested on: tobacco mosaic virus (TMV); test: Anti-TMV in vivo protective effect; set-up: species or system tobacco mosaic virus (host Nicotiana tabacum L.cv.Xanthi NN); details: Tobacco mosaic virus, read-out: Relative inhibition rate (%) In vivo protection; for inhibition at 100 µg/mL: treatment dose 100 μg/mL; for inhibition at 500 µg/mL: treatment dose 500 μg/mL
Fusarium graminearumt = test: microbe, parasite or virus in culture; assay type: cell-based; details: Fusarium, 96 h, read-out: Bactericidal activity (%) Fusarium graminearumt
potato late blight = test: microbe, parasite or virus in culture; assay type: cell-based; details: Phytophthora infestans, 96 h, read-out: Bactericidal activity (%) potato late blight
Fusarium fujikuroi = test: Fungicidal (bactericidal) activity in vitro, PDA colony diameter; assay type: cell-based; details: Fusarium fujikuroi, 96 h; 50 mg/kg
Rhizoctonia cereali = test: as above; assay type: cell-based; details: Rhizoctonia, 96 h; 50 mg/kg
[4] = tested on: tobacco mosaic virus (TMV); test: Anti-TMV in vivo therapeutic effect; set-up: species or system tobacco mosaic virus (host Nicotiana tabacum L.cv.Xanthi NN); details: Tobacco mosaic virus, read-out: Relative inhibition rate (%) In vivo therapy; for inhibition at 100 µg/mL: treatment dose 100 μg/mL; for inhibition at 500 µg/mL: treatment dose 500 μg/mL
Cercospora arachidicola = test: Fungicidal (bactericidal) activity in vitro, PDA colony diameter; assay type: cell-based; details: Mycosphaerella arachidis, 96 h; 50 mg/kg
mosquito larvae = test: whole plant or invertebrate; details: Culex pipiens, 24 h, read-out: Mosquito larvae Mortality (%)
How it was run: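 Early fourth-instar Culex pipiens pallens larvae from an indoor colony, 10 per beaker, exposed to test compound at 5 ppm in water, diluted from a 1000 ppm acetone mother solution. Blank: water containing 0.5 mL test solvent.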

Alternaria solani = test: Fungicidal (bactericidal) activity in vitro, PDA colony diameter; assay type: cell-based; details: Alternaria solani, 96 h; 50 mg/kg
cucumber fusarium wilt = test: as above; assay type: cell-based; details: Fusarium, 96 h; 50 mg/kg
Botrytis cinerea = test: as above; assay type: cell-based; details: Botrytis cinerea, 96 h; 50 mg/kg
Sclerotinia scleotiorum = test: as above; assay type: cell-based; details: Sclerotinia, 96 h; 50 mg/kg
Macrophoma kawatsukai = test: as above; assay type: cell-based; details: 50 mg/kg
armyworms = assay type: in vivo; details: concentration 600 mg/kg
corn borers = test: whole plant or invertebrate; details: read-out: Corn borer Mortality (%)
[5] = tested on: tobacco mosaic virus (TMV); test: Anti-TMV in vivo inactivation; set-up: species or system tobacco mosaic virus (host Nicotiana tabacum L.cv.Xanthi NN); details: Tobacco mosaic virus, read-out: Relative inhibition rate (%) In vivo inactivation; for inhibition at 100 µg/mL: treatment dose 100 μg/mL; for inhibition at 500 µg/mL: treatment dose 500 μg/mL

Compound	inhibition of growth at 50 mg/kg [1]	inhibition of growth at 50 mg/kg (Phytophthora capsici)	inhibition at 100 µg/mL [2]	inhibition at 500 µg/mL [2]	mortality at 600 mg/kg (cotton bollworms)	inhibition of growth at 50 mg/kg (Rhizoctonia solani)	inhibition at 50 mg/kg (Bipolaria maydis)	inhibition at 100 µg/mL [3]	inhibition at 500 µg/mL [3]	inhibition of growth at 50 mg/kg (Fusarium graminearumt)	inhibition of growth at 50 mg/kg (potato late blight)	inhibition of growth at 50 mg/kg (Fusarium fujikuroi)	inhibition of growth at 50 mg/kg (Rhizoctonia cereali)	inhibition at 100 µg/mL [4]	inhibition at 500 µg/mL [4]	inhibition of growth at 50 mg/kg (Cercospora arachidicola)	mortality at 10 mg/kg (mosquito larvae)	inhibition of growth at 50 mg/kg (Alternaria solani)	inhibition of growth at 50 mg/kg (cucumber fusarium wilt)	inhibition of growth at 50 mg/kg (Botrytis cinerea)	also measured
Cc1nc(C(=O)O)cc2c1[nH]c1ccccc12 [Ia-11, 1-methyl-pyridino [3,4-b] indol-3-formic acid]	38.1%	60.6%	0%	32.5%	10%	42.9%	21.1%	0%	21.4%	35.7%	25%	35.7%	53.1%	0%	29.6%	50%	50%	33.3%	19.1%	63.6%	inhibition of growth at 50 mg/kg (Sclerotinia scleotiorum): 72%; inhibition at 50 mg/kg (Macrophoma kawatsukai): 82.4%; Armyworm Mortality (%) (armyworms): 10%; mortality at 600 mg/kg (corn borers): 10%; inhibition at 100 µg/mL [5]: 0%; inhibition at 500 µg/mL [5]: 27.3%
C[C@@H]1N[C@H](C(=O)O)Cc2c1[nH]c1ccccc21 [Ib-1, (1S, 3S)-1-methyl-2,3,4,9-tetrahydropyridino [3,4-b] indol-3-formic acid]	35.7%	18.8%	18.9%	41.6%	25%	26.3%	22.7%	20%	41.3%	26.2%	27.3%	21.4%	42.1%	15.8%	40.4%	30.8%	55%	21.1%	19.2%	21.2%	inhibition of growth at 50 mg/kg (Sclerotinia scleotiorum): 7.8%; inhibition at 50 mg/kg (Macrophoma kawatsukai): 23.8%; Armyworm Mortality (%) (armyworms): 25%; mortality at 600 mg/kg (corn borers): 25%; inhibition at 100 µg/mL [5]: 13.5%; inhibition at 500 µg/mL [5]: 35.5%
C[C@H]1N[C@@H](C(=O)O)Cc2c1[nH]c1ccccc21 [Ib-2, (1R,3R)-1-methyl-2,3,4,9-tetrahydropyridino [3,4-b] indol-3-formic acid]	25%	15.6%	0%	25%	25%	29%	9.1%	0%	29.7%	21.4%	4.6%	0%	31.6%	0%	31.5%	61.5%	30%	0%	23.1%	18.2%	inhibition of growth at 50 mg/kg (Sclerotinia scleotiorum): 23.5%; inhibition at 50 mg/kg (Macrophoma kawatsukai): 23.8%; Armyworm Mortality (%) (armyworms): 10%; mortality at 600 mg/kg (corn borers): 10%; inhibition at 100 µg/mL [5]: 0%; inhibition at 500 µg/mL [5]: 28.6%
O=C(O)[C@@H]1Cc2c([nH]c3ccccc23)[C@H](c2ccccc2)N1 [Ib-5, (1S, 3S)-1-phenyl-2,3,4,9-tetrahydropyridino [3,4-b] indol-3-formic acid]	35.7%	12.5%	0%	19.7%	30%	36.8%	22.7%	0%	32.3%	26.2%	22.7%	42.9%	44.7%	0%	24.3%	69.2%	100%	15.8%	19.2%	21.2%	mortality at 5 mg/kg (mosquito larvae): 30%; inhibition of growth at 50 mg/kg (Sclerotinia scleotiorum): 9.8%; inhibition at 50 mg/kg (Macrophoma kawatsukai): 11.9%; Armyworm Mortality (%) (armyworms): 50%; mortality at 600 mg/kg (corn borers): 35%; inhibition at 100 µg/mL [5]: 0%; inhibition at 500 µg/mL [5]: 27.6%
C[C@@H]1N[C@H](C(=O)NC2CCCCC2)Cc2c1[nH]c1ccccc21 [Ib-17, (1S, 3S)—N-cyclohexyl-1-methyl-2,3,4,9-tetrahydro-pyridino [3,4-b] indol-3-formamide]	50%	37.5%	0%	38.8%	30%	50%	45.5%	14.2%	37.1%	59.5%	31.8%	28.6%	71.1%	15.1%	44.6%	69.2%	100%	52.6%	34.6%	27.3%	mortality at 5 mg/kg (mosquito larvae): 10%; inhibition of growth at 50 mg/kg (Sclerotinia scleotiorum): 33.3%; inhibition at 50 mg/kg (Macrophoma kawatsukai): 47.6%; Armyworm Mortality (%) (armyworms): 45%; mortality at 600 mg/kg (corn borers): 40%; inhibition at 100 µg/mL [5]: 12.3%; inhibition at 500 µg/mL [5]: 43.3%
C[C@@H]1N[C@H](C(=O)NCN(C)C)Cc2c1[nH]c1ccccc21 [Ib-19, (1S, 3S)—N-((dimethylamino)methyl)-1-methyl-2,3,4,9-tetrahydro-pyridino [3,4-b] indol-3-formamide]	25.9%	7.9%	0%	26.6%	60%	26.3%	24%	0%	24.7%	27.6%	20%	21.4%	47.1%	0%	20.9%	41.2%	20%	25%	19.2%	27.3%	inhibition of growth at 50 mg/kg (Sclerotinia scleotiorum): 35.3%; inhibition at 50 mg/kg (Macrophoma kawatsukai): 55.6%; Armyworm Mortality (%) (armyworms): 5%; mortality at 600 mg/kg (corn borers): 10%; inhibition at 100 µg/mL [5]: 0%; inhibition at 500 µg/mL [5]: 18.5%
